Reference: patent US20060233743A1, “Compositions and methods of therapy” (priority 2002, published 2006)

Experiments:
[1] = system: cells of the immune system; experiment: release of IL-10 from cells of the immune system in the presence of GMCSF; type: cell-based
U937 cells = experiment: Example 5: IL-10 and TNFα mRNA in U937 cells; type: cell-based, human; conditions: differentiation, PMA 2×10^−7 M
Description: U937 (human monocyte cell line) cells were grown in RPMI (PAA Laboratories) medium with 10% fetal calf serum added (PAA Laboratories). Cells were treated with prostaglandin E2 at 10^−6 Molar, Rolipram 10^−6 Molar, Forskolin 50×10^−6 Molar with or without GMCSF at 5 ng/ml for 48 hours. Cells were pelleted and the mRNA was extracted with Tri reagent (Sigma, Poole, UK). Total RNA was obtained by addition of chloroform and subsequent isopropanol precipitation. RNA was reverse transcribed with reverse transcriptase (Applied Biosystems) and random hexamers (Applied Biosystems). Probes and primers for amplification and detection of IL-10 were designed using Primer Express (Applied Biosystems) and are as follows:
As for Example 4 but mRNA for TNFα alpha is also included.
Data is shown as the ratio of IL-10 mRNA/TNFα mRNA. P═PMA=Phorbol myristoyl acetate; F=Fsk=Forskolin, g=GMCSF, C=vehicle control.

type IV PDE = type IV PDE inhibitor; cited from earlier work
PDE = conditions: cited from earlier work

Q: Which “stimulation of IL-10” value [1] does the source give for `CCCCC[C@H](O)/C=C/[C@H]1[C@H](O)CC(=O)[C@@H]1C/C=C\CCCC(=O)O` [PGE, prostaglandin E2] here?
A: increased strikingly

Q: For `CCCCCCCCCCCCCC(=O)O[C@@H]1[C@@H](C)[C@@]2(O)[C@@H](C=C(CO)C[C@]3(O)C(=O)C(C)=C[C@@H]23)[C@@H]2C(C)(C)[C@]12OC(C)=O` [PMA, Phorbol myristoyl acetate], which “IL-10 mRNA” value (U937 cells) is on record?
A: increased

Q: And the “TNFα mRNA” value (U937 cells; Forskolin 50×10^−6 Molar, GMCSF 5 ng/ml)?
A: also increased

Q: For `CCCCOc1cc(CC2CNC(=O)N2)ccc1OC` (centres unmarked) [Ro-20-1724, 4-[3-butoxy-4-methoxybenzyl]-2-imidazolidinone], which IC50 (type IV PDE) is on record?
A: 2000 nM

Q: With 19-hydroxy PGE as the compound, how does the “stimulation of IL-10” value [1] read?
A: increased strikingly

Q: For `Cn1c(=O)c2[nH]cnc2n(C)c1=O` [theophylline], which “times less effective than rolipram” value (PDE; non-selective inhibitor compared with rolipram) is on record?
A: 30 times

Q: With `CC(C)Cn1c(=O)n(C)c(=O)c2[nH]cnc21` [IBMX, 3-isobutyl-1-methylxanthine] as the compound, how does the IC50 (PDE; non-specific PDE inhibitor) read?
A: 2 to 50 µM

Q: Which IC50 (type IV PDE) does the source give for `COc1ccc(C2CNC(=O)C2)cc1OC1CCCC1` (centres unmarked) [rolipram, 4-[3-cyclopentyloxy-4-methoxyphenyl]-2-pyrrolidinone] here?
A: 800 nM
